Here are results for one compound from US20120276064A1, “METHODS AND COMPOSITIONS FOR REJUVENATION AND EXPANSION OF STEM CELLS” (priority 2011, published 2012).

In experiment [1] the test system is young and old MuSCs. Nature of the experiment: Bulk proliferation of MuSCs in soft hydrogel culture. In kind it is cell-based, mouse. The note with it: soft (12 kPa) hydrogel, 10 μM, one week. On the procedure:
MuSC culture and treatment. Following isolation, MuSCs were pelleted and resuspended into myogenic cell culture medium containing DMEM/F10 (50:50), 15% FBS, 2.5 ng/ml bFGF, and 1% penicillin/streptomycin. MuSCs were seeded at 1000 cells per well (24-well plate size wells, 2.0 cm^2 surface area) on laminin-tethered hydrogels of either 12 kPa (soft) or ˜10^6 kPa (rigid) rigidities. Cells were maintained at 37° C. in 5% CO2. Media was changed daily. […]
Proliferation assays. MuSC proliferation in hydrogel culture was assessed at both the clonal and bulk levels. […] Cell proliferation was monitored by time-lapse microscopy from 12 hours (day 0) to four days post-seeding as described previously using a PALM/AxioObserver Z1 system (Carl Zeiss MicroImaging) with custom environmental control chamber and motorized stage. Images were recorded every 20 min at 5× magnification. […] After one week, cells were trypsinized and counted on a hemocytometer.

In experiment [2] the test system is p21, Myogenin, Pax7 transcripts in MuSCs. The experiment can be described thus: Quantitative real-time PCR gene expression in hydrogel-cultured MuSCs. In kind it is cell-based, mouse. The note with it: old MuSCs, soft hydrogel, 10 μM, one week. On the procedure:
MuSC culture and treatment. Following isolation, MuSCs were pelleted and resuspended into myogenic cell culture medium containing DMEM/F10 (50:50), 15% FBS, 2.5 ng/ml bFGF, and 1% penicillin/streptomycin. MuSCs were seeded at 1000 cells per well (24-well plate size wells, 2.0 cm^2 surface area) on laminin-tethered hydrogels of either 12 kPa (soft) or ˜10^6 kPa (rigid) rigidities. Cells were maintained at 37° C. in 5% CO2. Media was changed daily. For proliferation and p38 inhibition studies, the following ligands/inhibitors were supplemented in the myogenic medium and maintained consistently through the experiment: 25 ng/ml Wnt7a (R&D Systems, Minneapolis, Minn.), 25 ng/ml Jagged1-Fc (R&D Systems, Minneapolis, Minn.), 10 nM tautomycetin (PP1 inhibitor; Tocris Bioscience, Ellisville, Mo.), 10 μM SB202190 or 10 μM SB203580 (p38 inhibitors; EMD Chemicals, Gibbstown, N.J.), 1 μM SB431542 (ALK4/5/7 inhibitor; Tocris Bioscience), or 0.1% DMSO carrier control. All MuSC cell culture assays and transplantations were performed after one week of culture unless noted otherwise.
Quantitative real-time PCR. RNA was isolated from freshly isolated and cultured cells using the RNeasy Micro kit (Qiagen, Valencia, Calif.). Total RNA from each sample was reverse transcribed using the High Capacity cDNA RT kit (Applied Biosystems, Carlsbad, Calif.). cDNA was subjected to real-time PCR using a SYBR Green PCR Master Mix (Applied Biosystems). Real-time PCR was performed using an ABI 7900HT Real Time PCR system and software (Applied Biosystems). Samples were cycled at 95° C. for 10 min and then 40 cycles of 95° C. for 15 sec and 60° C. for 1 min. To quantify relative transcript levels, the 2^−ΔΔCt method was used, and freshly isolated young MuSCs were used as reference value (plotted as 1 in all graphs). Gapdh was used as a normalizing gene. Primer sequences for Gapdh, p21, myogenin, and Pax7 were obtained from literature or using NIH Primer3.
In general terms: Quantitative PCR measures a nucleic acid by following its amplification.

Experiment [3] relates to tibialis anterior muscle of notexin-injured old mice. The experiment can be described thus: In vivo force measurements after transplantation of cultured old MuSC progeny. The note with it: injured old muscles transplanted with progeny of SB-treated old MuSCs; two months post-injury. Further details: species or system mouse.

For the compound `Oc1ccc(-c2nc(-c3ccncc3)c(-c3ccc(F)cc3)[nH]2)cc1` [SB202190], in experiment [1], the “Increase in total cell numbers (relative to seeding)” value is ~30 fold and the “Stimulation of proliferation of hydrogel-cultured MuSCs (in words)” value is “profound stimulation of proliferation”. For the same compound, in experiment [2], the “Transcription of the MuSC transcription factor Pax7” value is reported as “increased”, the “Transcription of the cell cycle inhibitor p21” value was “decreased” and the “Transcription of the commitment marker Myogenin” value is on record as “decreased”. For the same compound, in experiment [3], the “Specific tetanus force versus pre-injury levels” value is recorded as “restored” and the “Specific twitch force versus pre-injury levels” value is given as “exceeded”.
